The values below come from patent US8932558B2, “Multi-subunit biological complexes for treatment of plaque-associated diseases” (Plaxgen Inc, priority 2007, dated 2015).

Structures can show the parent of a compound that is named as a salt.

Data set [1] concerns CP aggregates. Briefly: Binding of proteins with calcium containing aggregates. As to conditions: 2 μg protein, 37° C., 1 hr. As for the experimental part:
(§1) The Proteins used for binding with the aggregates are diluted first in the PBS to make 1 mg/ml concentration and then stored at −20° C. as 50 μl aliquots. These samples are then thawed on ice and centrifuged (10,000 rpm, 10 min, 4° C.) to remove any precipitation and the supernatant containing only the soluble proteins are used for binding studies. To start with, for identification of proteins binding with calcium containing aggregates, a number of proteins are screened individually with the aggregates. Binding experiment is performed in 100 μl reaction (50 μl PBS buffer and 50 μl of individual aggregates) containing 2 μg of protein and the mixtures are incubated at 37° C. for 1 hr. For control experiments, protein (2 μg) is mixed in 100 μl PBS without aggregates. After the binding, the mixture is centrifuged (2500 rpm, 2 min, 20° C.) and the pellet is washed four times with 200 μl PBST (Tween 20, 0.05%). After each wash the supernatant is discarded and the complexes are transferred to a new microfuge tube to avoid any carry-over of the proteins. The calcium containing aggregates-protein complexes are suspended in 20 μl of PBS to which 5 μl of EDTA (25 mM final concentration) is added for solubilization of the complexes. Finally, the solublized samples are used for protein quantitation using protein estimation kit (Pierce, Ill.) and the data are used in the Microsoft Excel program to generate Graph 1 (FIG. 4). All the binding experiments and subsequent CPA experiments are carried out in low protein bind 1.7 ml centrifuge tubes (Effentorf, Calif.). For all the following binding experiments the same buffer, centrifugation and washing conditions are used.

For data set [2], the target named is iron-loaded abeta42 templates (Homo sapiens, UniProt P05067). Briefly: Binding of proteins to iron-loaded abeta42 templates. As to conditions: SDS-PAGE. The source says:
FIG. 46 illustrates an example involving the identification of proteins that bind to iron-loaded abeta42 templates. The iron-loaded abeta42 templates are combined with known and unknown cell extracts (CE) and subjected to CPA, as described herein. To determine which proteins successfully bind the templates, the final template complexes are suspended in denaturing sample buffer, boiled, and loaded into SDS-PAGE gel. The gels are then stained with coomassie blue or silver stain in order to visualize the binding proteins. […] In the negative control, no significant binding is observed when the proteins are incubated in the absence of the templates.
In experiments such as these, known and unknown cell extract proteins that are used for the complex formation with the aggregates are diluted in PBS to a 1 mg/ml concentration and stored at −70° C. as 50 μl aliquots. These samples are thawed on ice and centrifuged (13000 rpm, 15 min, 4° C.) to remove any precipitation. The supernatant containing soluble proteins is used to form complexes with the aggregates. Various proteins are screened against the iron loaded abeta42 aggregates for examining their binding. Binding experiments are performed in PBS (50 μl, pH 7.3) containing 6.0 μg of iron loaded abeta 42 aggregates and 1.0 μg of each protein. The mixture is incubated at 37° C. for 1 hr. After that, the samples are centrifuged (9000 rpm, 9 min, 15° C.) and the complexes are washed five times with 100 μl PBST (PBS containing 0.05% of Tween 20). After each wash, the supernatant is discarded and the complexes are transferred to a new tube to avoid any carry-over of the proteins. The final complexes are suspended in 20 μl of PBS to which 5.0 μl of denaturing sample solublising buffer (Bio Rad, CA, USA) is added. After boiling the samples for 10 min they are loaded into 4-20% SDS-PAGE (Cambrex Bio Sci, ME, USA). The proteins in the gels are detected using coomassie blue or silver stain (Owl silver stain, Pierce, Ill., USA). All the binding and the CPA experiments are carried out in low protein bind 1.7 ml centrifuge tubes (Effentorf, Calif.).

In data set [3] the test system is CP aggregates formation. Briefly: Screen of known drugs for prevention of CP aggregates formation. As to conditions: for CP aggregates formation, dose dependence: sodium phosphate dibasic and calcium chloride 4 mM each.
For data set [4], the system named is CO, lipid and cholesterol aggregates formations. Briefly: Effect of PGN27 on CO, lipid and cholesterol aggregates formation.
Data set [5] deals with CP aggregates. Briefly: Binding of PGN27 to CP aggregates and cyclic plaque assembly (CPA).
Data set [6] has as its system plaque induced chronic inflammation. Briefly: Drug treatment of mice with plaque induced chronic inflammation. As to conditions: 5-10 mg/kg per day orally, 8 weeks.
The test system of data set [7] is thrombus, generated from the CP-Chl aggregates. Briefly: Effect of PGN27 on dissolution of thrombus. As to conditions: 2 mM, 1 hr.
Data set [8] relates to plaque accumulation in the heart tissues. Briefly: Drug treatment of asymptomatic induced atherosclerotic mice, histochemical analysis of heart tissues. As to conditions: 5-10 mg/kg per day orally, 8 weeks.
Data set [9] deals with CO aggregates. Briefly: Binding of proteins with calcium containing aggregates. As to conditions: 2 μg protein, 37° C., 1 hr. The method, then: as §1
In data set [10] the test system is thrombus generated from the in vitro assembled plaques complexes. Briefly: Thrombolytic assay with PLG cascade proteins. Type of data set: biochemical. As to conditions: thrombus from cholesterol, lipids, CP and CO complexes. As for the experimental part: To examine this, both PLG and PLG activators are used to target these clots. Thrombolytic assays are carried out in 100 μl reaction containing thrombus, generated from 100 μl of aggregates or plaque complexes, 1 μg of PLG and 20 ng of u-PA or t-PA in PBS buffer. The reactions are incubated at 37° C. for 1 hr and after every 15 min the tubes are gently tapped to mix the contents. After 1 hr incubation, 1 ml of PBS is added to all the tubes and the samples are visually examined for dissolution of the thrombus.
The thrombus generated from the cholesterol, lipids, CP, and CO complexes are incubated separately with PLG, u-PA and t-PA to examine whether these proteins individually could dissolve the clots.
This could be due to the inhibition of u-PA by the PAI-1 thereby preventing the activation of the PLG. In the next experiment, the aggregates of CP-Cholesterol, CP-Lipids, CP-Cholesterol-Lipids, Cholesterol-Lipids, CO-Cholesterol and CO-Lipids are individually used in CPA for five cycles to assemble complexes followed by their thrombus generation.
The example depicted in FIG. 18 illustrates the dissolution of thrombi by PLG and u-PA. […] Both the clots and the dissolved complexes are further examined under microscope to confirm the visual examination (FIGS. 18a, b, c and d). The thrombus formed in the urine is also dissolved by the action of PLG and u-PA.

In data set [11] the target is T1, PLG attached to complexes of iron loaded abeta42 aggregates (Homo sapiens, UniProt P00747).
T1 construct: Lys-Plasminogen (PLG); purchased Enzyme Research Laboratories (IN, USA)
Briefly: Activation of complex-bound PLG by u-PA or t-PA. It is filed as biochemical. The method, then:
This example illustrates a method of evaluating the conformation and functionality of PLG attached to template complexes. Three groups of experiments are carried out to add the PLG at different layers of plaque complex formation. Group I includes three independent reactions containing both the PLG and BSA (0.5 μg each) that are added in the first cycle of the complex formation with the templates (5.0 μg). Group II includes three reactions to which both the PLG and BSA (0.5 μg each) are added in the first cycle of complex formation followed by another cycle of binding of the resulting complexes with the CE proteins (6.0 μg). Similarly, Group III includes three reactions each containing 5.0 μg of CE proteins and 5.0 μg of the abeta42 templates for complex formation in the first cycle of binding. The resulting complexes are subjected to another cycle of binding with both the PLG and BSA (0.5 μg each). […] After treating with the PLG activators, all the complexes are washed and finally suspended in 20 μl of PBS. After boiling the complexes for 10 min in sample solublizing buffer they are loaded into 4-20% gradient SDS-PAGE. Further, the gel is processed for silver staining and the results are documented for analysis. […]

In data set [12] the test system is CP, CC, CO, and CaPPD aggregates. Briefly: Binding of proteins with calcium containing aggregates (any of the four). As to conditions: 2 μg protein, 37° C., 1 hr. The method, then:
as §1, with “The calcium containing aggregates-protein complexes are suspended in 20 μl of PBS to which 5 μl of EDTA (25 mM final concentration) is added for solubilization of the complexes.” left out, “All the binding experiments and subsequent CPA experiments are carried out in low protein bind 1.7 ml centrifuge tubes (Effentorf, Calif.). For all the following binding experiments the same buffer, centrifugation and washing conditions are used.” left out

Data set [13] relates to iron loaded abeta42 aggregates mixed with CE proteins. Briefly: Proteolysis of amyloid plaque complexes assembled on iron loaded abeta42 aggregates. Type of data set: biochemical. As to conditions: 20 ng protease, 37° C., 1 hr. As for the experimental part: This example illustrates the use of the invention to evaluate the proteolytic degradation of the amyloid complexes. For example, iron loaded abeta42 aggregates are mixed with CE proteins, and the resulting template complexes are treated with five different serine proteases. More specifically, nine independent reactions are carried out with each containing 5.0 μg of the iron-loaded aggregates of abeta42 and 6.0 μg of the CE proteins. After incubation and washing, the complexes are suspended in 50 μl of PBS. The nine complexes are sub-divided into two groups, with six individual complexes comprising Group I and three complexes comprising Group II. In order to interrogate the role of the plasminogen (PLG) activation system, which is implicated in the catabolism of amyloid peptides as well as the pathobiology of amyloid diseases (Melchor J P et al, 2003; Van Nostrand W E et al, 1999; Kranenburg O, 2005), the Group II complexes are subjected to another cycle of binding with both PLG (0.5 μg) and BSA (0.5 μg) proteins. After binding and washing, the PLG and BSA bound plaques complexes are suspended in 50 μl of PBS.
For proteolysis analysis, five of the six Group I template complexes are incubated with 20 ng of each protease (plasnin, chymotrypsin, trypsin, proteinase K and urokinase). The remaining complex is used as a control without protease treatment. Among three complexes of the Group II containing PLG attached to them, one is treated with u-PA (20 ng), a second is treated with t-PA (20 ng) and the third complex is used as a control without protease treatment. All these plaque complexes are incubated at 37° C. for 1 hr and after every 15 min, the tubes are gently tapped in order to encourage mixing. After washing, both the proteases-treated and control plaque complexes are suspended in 20 μl PBS. The complexes are boiled for 10 min with sample solubilizing buffer and loaded in to 4-20% gradient SDS-PAGE. Further, the gels are processed for silver staining and the results are documented for further analysis.

Chain of iron-loaded abeta42 templates (P05067 672-713 limits assumed): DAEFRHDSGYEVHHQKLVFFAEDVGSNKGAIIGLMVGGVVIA
T1 sequence (P00747 97-810, one chain of several): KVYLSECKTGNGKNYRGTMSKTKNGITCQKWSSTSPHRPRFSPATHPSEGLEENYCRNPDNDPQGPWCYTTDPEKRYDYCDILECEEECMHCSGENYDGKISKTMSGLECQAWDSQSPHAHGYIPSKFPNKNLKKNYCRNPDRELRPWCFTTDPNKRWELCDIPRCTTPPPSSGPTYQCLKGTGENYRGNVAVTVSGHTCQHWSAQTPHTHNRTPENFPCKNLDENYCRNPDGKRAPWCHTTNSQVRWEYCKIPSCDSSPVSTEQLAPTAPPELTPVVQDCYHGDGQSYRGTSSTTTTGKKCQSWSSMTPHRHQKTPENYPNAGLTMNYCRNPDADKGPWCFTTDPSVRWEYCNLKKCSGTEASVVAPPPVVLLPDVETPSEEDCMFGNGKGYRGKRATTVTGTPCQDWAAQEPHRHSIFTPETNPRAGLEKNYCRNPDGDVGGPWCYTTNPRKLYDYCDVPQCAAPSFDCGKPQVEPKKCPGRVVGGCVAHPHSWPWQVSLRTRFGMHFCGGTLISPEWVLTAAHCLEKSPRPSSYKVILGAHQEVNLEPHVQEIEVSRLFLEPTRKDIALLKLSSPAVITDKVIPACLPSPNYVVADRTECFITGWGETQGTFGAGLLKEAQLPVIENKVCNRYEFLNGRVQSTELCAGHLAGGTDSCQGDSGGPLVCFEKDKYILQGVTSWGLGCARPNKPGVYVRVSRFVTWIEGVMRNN

On to ProS: protein S, for which the “Binding with the CP aggregates” value in [1] was “detectable binding”. The “Binding with iron-loaded abeta42 templates” value in [2] is “bind with the templates”.
Take `CN(C)[C@@H]1C(O)=C(C(N)=O)C(=O)[C@@]2(O)C(O)=C3C(=O)c4c(O)cccc4[C@@](C)(O)[C@H]3C[C@@H]12` [PGN27, tetracycline hydrochloride]: the “CP aggregates formation in the presence of antibiotic” value in data set [3] (5 mM drug, 5 mM sodium phosphate dibasic, 5 mM calcium chloride, 30 min 37° C.) is recorded as “prevented the CP aggregates formation”. In addition, the “CP aggregates formation, dose dependence” value is reported as “CP aggregates formation occurred” in data set [3] (0.5 and 0.25 mM drug); “did not show the CP aggregates formation” in [3] (4, 2 and 1 mM drug). Also, the “Inhibition of CO, lipid and cholesterol aggregates formations” value in data set [4] is given as “did not inhibit”. The “Binding with the CP aggregates (colorless to yellow)” value in [5] (2 mM, 37° C., 30 min) was “specific and stable binding”. Also, the “Effect on binding of proteins with the CP aggregates in CPA” value in data set [5] (CP-PGN27 complexes, four cycles of CPA, gel analysis) is “did not compete or affect binding of the proteins”. Further, the “Symptoms of plaque inflammation compared to the control animal” value in [6] is “reduced symptoms of plaque inflammation”. In [7], the “Dissolution of the thrombus” value is “no dissolution of the thrombus”. For the same compound, the “Plaque accumulation in heart tissues, histochemical analysis” value in data set [8] is reported as “reduced plaque accumulation”.
As to “rhHGF: recombinant human hepatocyte growth factor”, the “Binding with iron-loaded abeta42 templates” value in data set [2] is “bind with the templates”.
As for FIX: coagulation factor IX, the “Binding with the CO aggregates” value in [9] is on record as “detected for binding”. Besides, the “Binding with the CP aggregates” value in [1] is reported as “detectable binding”. Also, the “Binding with iron-loaded abeta42 templates” value in data set [2] was “bind with the templates”.
In the case of PLG: plasminogen, the “Dissolution of thrombus, protein incubated separately” value in [10] was “did not show any dissolution”. Also, in data set [11] (25, 50, 100 ng u-PA), the “Activation of PLG bound in first cycle compared to second cycle, increasing u-PA” value was “exhibits resistance even when incubated with increased concentrations of the u-PA”. For the same compound, the “Activation of PLG bound in first cycle compared to second cycle” value in data set [11] (u-PA (20 ng) or t-PA) was “detectable level of resistance to activation”. For the same compound, the “Binding with the CP aggregates” value in data set [1] was “detectable binding”. Moreover, the “Binding with iron-loaded abeta42 templates” value in data set [2] is “bind with the templates”.
Turning to CB: complement factor B, the “Binding with iron-loaded abeta42 templates” value in data set [2] was “bind with the templates”.
For HIN: human insulin, the “Binding with any of the CP, CC, CO, CaPPD aggregates” value in data set [12] is “no detectable binding”. The “Binding with iron-loaded abeta42 templates” value in [2] was “no detectable binding”.
chymotrypsin: the “Degradation of proteins bound to the aggregates” value in data set [13] was “degraded”.
In the case of trypsin, in data set [13], the “Degradation of proteins bound to the aggregates” value is reported as “degraded”.
CD: complement factor D: the “Binding with iron-loaded abeta42 templates” value in data set [2] is on record as “bind with the templates”.
As for C3: complement factor 3, the “Binding with the CP aggregates” value in data set [1] was “detectable binding”.
